# Assay results reported in patent US20250376466A1, “ESTER COMPOUNDS AND USE THEREOF” (NANJING REJU THERAPEUTICS, CO., LTD., priority 2022, published 2025).
# Legend:
# Alzheimer's disease = test: APP×PS1 transgenic mouse model of Alzheimer's disease; format: in vivo; conditions: intraperitoneal injection, twice a week, 11 consecutive weeks; cerebral cortex; FIG. 8
# Description: In this example, the efficacy of the compounds of the present disclosure was tested on Alzheimer's disease in an animal model of Alzheimer's disease. Briefly, a transgenic mouse model of APP×PS1 (purchased from Cyagen Biosciences) was selected and the compound of the present disclosure was administered by intraperitoneal injection for 11 consecutive weeks, twice a week. Alterations in amyloid in the cerebral cortex of the mice were observed.
# [1] = tested on: oxygen-induced retinopathy (OIR); test: Mouse model of oxygen-induced retinopathy (OIR); format: in vivo; conditions: intravitreal (IVT), 1 μl of 200 μM at P12, retinas at P17, IB4 staining; FIG. 3
# Description: The efficacy of the prodrugs RZ001-RZ006 as well as RZ201 were investigated in a mouse model of oxygen-induced retinopathy (OIR) which to some extent indicates an in vivo model of retinopathy of prematurity (ROP), diabetic retinopathy, and wet age-related macular degeneration. From postnatal Day 7 (P7) to Day 12 (P12), C57Bl/6 mouse pups and their CD1 foster mothers were exposed to hyperoxia (75% O2). At P12, the animals were injected intravitreally with 1 μl of the test composition formulated in 1% DMSO, 10% Tween 80, and 20% PEG-400 (200 μM the compound) and returned to room air until Day 17 (P17). On P17, the eyeballs were enucleated and the retinas were dissected for vascular staining. To determine the area of avascularity or angiogenesis, the retinas were flattened and stained with isolectin B4 (IB4).
# [2] = tested on: wet-age-related macular degeneration (CNV); test: CNV animal model of wet age-related macular degeneration; format: in vivo, mice; conditions: intravitreal (IVT); laser CNV model; FIG. 5
# Description: In this example, the efficacy of the compounds of the present disclosure was tested on wet-age-related macular degeneration in a CNV animal model.
# Male mice were administered 0.5% probacaine hydrochloride (Alcon) for local anesthesia, and 1% tropicamide to dilate the pupils of the mice. Laser cauterization was performed using a laser photocoagulator (Novus Varia, LUMENIS) with a slit lamp delivery system. And artificially torn adherent glass coverslips were used as contact lenses. Bleeding spots caused by laser were not included in the statistical data.
# [3] = tested on: normal A549 cells, IMR90 cells, RPE cells, mouse chondrocytes, mouse skin fibroblasts; test: Cell viability of normal cells (CellTiter-Glo); format: cell-based, human; conditions: 1 μM, 72 hours, FIGS. 2A to 2E
# Description: (§1) In this example, human non-small cell lung cancer cell line (A549 cells), human embryonic lung fibroblast cell line (IMR90 cells), human retinal pigment epithelial cells (RPE cells), mouse chondrocytes, and mouse skin fibroblasts were selected. The cells above were induced to obtain senescent cells by etoposide (10 μM). The effect of the target compounds RZ001-RZ006 and RZ201 on the viability of normal and senescent cells above was detected, thereby evaluating the specific killing effect of the prodrugs RZ001-RZ006 and RZ201 on senescent cells above.
# (§2) Briefly, senescent and normal cells above were selected and plated separately (96-well plates). After adding the compounds RZ001-RZ006 and RZ201 (concentration: 1 μM) for 72 hours, CellTiter-Glo® Luminescent Cell Viability Assay Kit (Promega) was used to detect cell viability, and the results were shown in FIGS. 2A to 2E.
# aging skin = test: Aging skin in naturally aging mouse model; format: in vivo; conditions: skin application twice a week, 6 consecutive weeks; aged female mice (22 months old); FIG. 10
# Description: In this example, aged female C57bl/6J mice (22 months old) were used. The drug was administered by skin application at twice a week for 6 consecutive weeks.
# [4] = tested on: senescent A549 cells, IMR90 cells, RPE cells, mouse chondrocytes, mouse skin fibroblasts; test: Cell viability of senescent cells (CellTiter-Glo); format: cell-based, human; conditions: 1 μM, 72 hours; etoposide (10 μM)-induced senescent cells; FIGS. 2A to 2E
# Description: as §1, §2
# hypertrophic scars = test: Rabbit ear hypertrophic scar model; format: in vivo, New Zealand white rabbits; conditions: 150 μM, 100 μL injected into lesion once a week, 4 injections, from postoperative Day 14; FIG. 12
# Description: In this example, the efficacy of the compounds of the present disclosure was tested on hypertrophic scars in a rabbit ear hypertrophic scar animal model. Briefly, 10 New Zealand white rabbits, male, 3 months old, were used. The New Zealand rabbits were anaesthetized with sodium pentobarbital and six circular full-thickness wounds with a diameter of 10 mm were made on the ventral surface of each ear by removing the epidermis, dermis and perichondrium to expose the cartilage. The rabbits were randomly divided into control and RZ001 experimental groups. On postoperative Day 14, after complete re-epithelialization of the wound surface, the compound (150 μM, 100 μL, dissolved in DMSO solution) or negative control DMSO 100 μL was injected into the center of each lesion from the wound edge once a week for a total of 4 injections. Improvement of scar formation by the compound was assessed by SEI (Scar Excess Index).
SMILES,Aβ42 pathogenic protein indicators (Alzheimer's disease),angiogenesis [1],avascular zone [1],fluorescence intensity indicators [2],cytotoxicity against normal cells (cell viability) [3],epidermal thickness scores of the skin (aging skin),cytotoxicity against senescent cells (cell viability) [4],scar excess index (SEI) (hypertrophic scars)
Cc1oc(=O)oc1COC(=O)c1nc(N2CCc3cccc(C(=O)Nc4nc5ccccc5s4)c3C2)ccc1-c1cnn(CC23CC4CC(CC(C4)C2)C3)c1C [RZ201],statistically significant improvements,statistically significant improvements,statistically significant improvements,statistically significant improvements,without significant killing effects on normal cells,statistically significant improvements,cytotoxicity primarily against senescent cells,–
Cc1c(-c2ccc(N3CCc4cccc(C(=O)Nc5nc6ccccc6s5)c4C3)nc2C(=O)OCOC(=O)C(C)C)cnn1CC12CC3CC(CC(C3)C1)C2 [RZ001],statistically significant improvements,–,–,statistically significant improvements,–,statistically significant improvements,–,statistically significant improvement
